Measured values: patent US20120115804A1, “COMPOSITIONS AND METHODS FOR CHARACTERIZING AND TREATING NEOPLASIA” (The John Hopkins University, priority 2009, published 2012)
Entries after “also recorded” stand apart in the source; their conditions may differ. Read-outs that look alike come from different tables or passages of the source.

What was measured:
[1] = tested on: breast cancer cell lines (HS578T, 21PT, MCF7, and T47D) and the immortalized normal breast epithelial cell line HBL100; conditions: 96 hours, Calcitriol 1.5 μM, AZA 10 μM, alone or combined, five breast cell lines, vs vehicle control
Experimental: Cell viability was measured by MTT assay.
(§1) Human breast cell lines were obtained from American Type Culture Collection (Rockville, Md.) and propagated as described 17. For pharmacological assays, 1.0×10^6 cells were seeded in 25 cm^2 tissue culture flasks.
Cell viability was measured using the Cell Titer 96 AQ-One Solution Cell Proliferation Assay kit from Promega Corporation (Madison, Wis.). Formazan absorbance was read at 490 nm in a 96-well plate reader.

[2] = tested on: VDR; assay: Quantitative Real-Time PCR of total VDR expression in breast cell lines; conditions: 96 hours, V primer set
Experimental: as §1
PCR was then performed for 40 cycles using gene-specific primers. To determine total VDR levels, pre-mixed “Assay on Demand” primer-probe sets for VDR (Hs01045843_m1) and GAPDH (Hs99999905_m1) and the GeneAmp® Fast PCR Master Mix were purchased from Applied Biosystems (Foster City, Calif.) and cDNA was amplified following the manufacturer's instructions in the ABI PRISM 7900HT instrument.

[3] = tested on: VDR mRNA; conditions: placental carcinoma cell lines; Pospechova et al. 2009; cited from earlier work
[4] = tested on: VDR promoter; conditions: 96 hours, all breast cell lines
Experimental: To determine whether the VDR gene promoter was hypermethylated in breast cancer, bisulfite sequencing was performed in the region 790 bp upstream to 380 bp downstream of the VDR transcription start site after treatment of cells in the presence or absence of AZA for ninety six hours (see FIG. 3).
PCR products were separated electrophoretically and isolated using a PCR purification kit (Qiagen, Valencia, Calif.). DNA was sequenced using the M13 Reverse Primer with an Applied Biosystems automated fluorescent sequencer according to the manufacturer's instructions. Percent DNA methylation was determined using the ratio of cytidine to thymidine traces at CpG dinucleotides.

[5] = tested on: VDRE containing genes; assay: Expression of VDRE-containing genes after treatment in vitro; type: cell-based, human
Experimental: FIGS. 6A-6C show expression levels of VDR Response Element (VDRE)-containing genes in primary breast cancer and normal breast tissue. […] Assays were performed in triplicate on a total of 8 breast cancers and 3 normal organoid preparations. […] Means and standard deviations are shown. Significant differences between normal and cancer are indicated (* p<0.05; ** p<0.01). […] The bars represent the fold induction of VDR downstream gene targets (CYP3A4[24/25OH]-white, CYP27B1[1OH]-grey, and C/EBP-hatched) over untreated control (horizontal line=1.0). Means and standard deviations of triplicate experiments are shown (* p<0.05; ** p<0.01).

[6] = tested on: VDR variants; conditions: after treatment; for levels of V1 and V2 VDR variants (active transcripts): all the breast cell lines
Source text: The V1d primers, spanning exon 1d and the junction of exon 1c and exon 2, were designed to recognize the transcript variants v1d, V1d′ and v1d″ (FIG. 1). In order to detect all of these variants, the nonspecific V6 primers, spanning exon 3 and exon 4, were used.
The PCR products were separated on 2% agarose gels, scanned in a Gel Doc Imager (BioRad, Philadelphia, Pa.), and quantified using Image Quant software (BioRad, Philadelphia, Pa.).

C=C1/C(=C\C=C2/CCC[C@]3(C)[C@@H]([C@H](C)CCCC(C)(C)O)CC[C@@H]23)C[C@@H](O)C[C@@H]1O [Calcitriol, 1,25-dihydroxyvitamin D3]
cell viability / growth inhibition [1]: minimal effects; also recorded: insensitivity
cell viability / growth inhibition ([1]; listed as VTD): ineffective

5′ deoxy-azacytidine
cell viability / growth inhibition [1]: restoration of sensitivity
overall expression level of VDR (total VDR transcripts) [2]: parallel increase
VDR mRNA expression [3]: re-expression
methylation of the CpG islands in the VDR promoter [4]: induced demethylation
methylation of the CpG islands in the VDR promoter ([4]; listed as 5′ dAZA): demethylated
expression of VDRE containing genes [5]: concurrent increase
levels of V1 and V2 VDR variants (active transcripts) [6]: significantly increased; also recorded: induced the re-expression
levels of V1 and V2 VDR variants (active transcripts) ([6]; listed as 5′ dAZA): restored
V1d and V1d′ VDR variants, response to demethylation ([6]; breast cell lines): less responsive
